# Laboratory results as given in patent US20080293571A1, “Insecticide organic fertilizer composition, process and method” (priority 2007, published 2008).
# Experiment: Biodegradation of rotenone after the composition is poured onto soil
# Settings: rotenone in the composition
structure (smiles),measurement,setting,value
C=C(C)[C@H]1Cc2c(ccc3c2O[C@@H]2COc4cc(OC)c(OC)cc4[C@@H]2C3=O)O1 [rotenone],Time until substantially biodegraded after pouring or drenching the nest,,approximately 3 days
same,Time until biodegrading after pouring the solution onto the soil,stable in liquid form in the container,2 to 5 days
